# Legend:
# PAPSS2 = biological target: T1, PAPSS2 (Homo sapiens, UniProt O95340); assay: thermal unfolding by CD at […] nm; assay type: binding; conditions: about 0.5 μM protein, pH 7.3, 1 mM MgCl2, 25 °C/h
# T1 sequence (O95340 1-614): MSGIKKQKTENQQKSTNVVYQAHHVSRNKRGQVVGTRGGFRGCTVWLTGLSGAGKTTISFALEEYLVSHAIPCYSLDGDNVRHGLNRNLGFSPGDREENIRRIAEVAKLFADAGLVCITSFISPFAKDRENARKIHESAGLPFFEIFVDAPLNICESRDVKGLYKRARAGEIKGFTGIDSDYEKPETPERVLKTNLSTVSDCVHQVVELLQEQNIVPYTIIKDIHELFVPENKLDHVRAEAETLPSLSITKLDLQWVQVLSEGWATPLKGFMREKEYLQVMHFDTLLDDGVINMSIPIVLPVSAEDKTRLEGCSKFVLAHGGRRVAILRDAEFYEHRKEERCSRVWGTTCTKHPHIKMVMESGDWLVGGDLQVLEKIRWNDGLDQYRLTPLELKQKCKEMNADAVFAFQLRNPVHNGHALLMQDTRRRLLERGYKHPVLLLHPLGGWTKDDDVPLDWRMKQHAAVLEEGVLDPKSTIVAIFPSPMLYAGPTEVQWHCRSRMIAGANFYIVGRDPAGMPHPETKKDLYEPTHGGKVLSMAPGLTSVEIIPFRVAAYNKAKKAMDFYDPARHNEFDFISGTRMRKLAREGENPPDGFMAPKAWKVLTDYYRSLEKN
# PAPSS1 = biological target: T2, PAPSS1 (Homo sapiens, UniProt O43252); assay: thermal unfolding by CD at […] nm; assay type: binding; conditions: about 0.5 μM protein, pH 7.3, 1 mM MgCl2, 25 °C/h
# T2 sequence (O43252 1-624): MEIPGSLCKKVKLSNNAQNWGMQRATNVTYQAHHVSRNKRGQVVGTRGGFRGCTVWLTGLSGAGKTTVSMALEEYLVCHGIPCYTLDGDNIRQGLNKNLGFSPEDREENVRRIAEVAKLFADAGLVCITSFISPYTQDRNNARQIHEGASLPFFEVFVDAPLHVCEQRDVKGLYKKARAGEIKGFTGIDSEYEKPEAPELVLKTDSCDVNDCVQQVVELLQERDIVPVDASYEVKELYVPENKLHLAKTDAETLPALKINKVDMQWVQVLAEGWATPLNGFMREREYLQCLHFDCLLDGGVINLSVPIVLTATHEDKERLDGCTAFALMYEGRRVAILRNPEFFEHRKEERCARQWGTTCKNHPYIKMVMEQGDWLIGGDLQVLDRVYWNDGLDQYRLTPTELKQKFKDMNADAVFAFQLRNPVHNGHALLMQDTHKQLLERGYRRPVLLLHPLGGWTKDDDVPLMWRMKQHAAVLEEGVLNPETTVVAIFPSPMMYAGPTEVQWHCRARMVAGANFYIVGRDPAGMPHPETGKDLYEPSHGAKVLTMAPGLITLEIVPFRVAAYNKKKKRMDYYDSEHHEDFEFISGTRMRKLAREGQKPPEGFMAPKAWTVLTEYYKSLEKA
compound,measurement,setting,value
Nc1ncnc2c1ncn2[C@@H]1O[C@H](COP(=O)(O)OP(=O)(O)O)[C@@H](O)[C@H]1O [ADP],thermal unfolding by CD at 225 nm,PAPSS2; 100 μM ADP,moderate effects on PAPSS1 and -S2 stability were observed for ADP and PAPS
same,thermal unfolding by CD at 225 nm,PAPSS1; 100 μM ADP,moderate effects on PAPSS1 and -S2 stability were observed for ADP and PAPS
Nc1ncnc2c1ncn2[C@@H]1O[C@H](COP(=O)(O)OP(=O)(O)OP(=O)(O)O)[C@@H](O)[C@H]1O [ATP],thermal unfolding by CD at 225 nm,PAPSS2; 100 μM ATP,ATP had a slight stabilizing effect on PAPSS2
Nc1ncnc2c1ncn2[C@@H]1O[C@H](COP(=O)(O)OS(=O)(=O)O)[C@@H](OP(=O)(O)O)[C@H]1O [PAPS],thermal unfolding by CD at 225 nm,PAPSS2; 50 μM PAPS,moderate effects on PAPSS1 and -S2 stability were observed for ADP and PAPS
same,thermal unfolding by CD at 225 nm,PAPSS1; 50 μM PAPS,moderate effects on PAPSS1 and -S2 stability were observed for ADP and PAPS

# Source: publication PMC3366831 (The Journal of Biological Chemistry, 2012)
